Results from ChEMBL document CHEMBL3272271, “Folate antagonists. 13. 2,4-Diamino-6-](alpha,alpha,alpha-trifluoro-m-tolyl)thio]quinazoline and related 2,4-diamino-6-[(phenyl- and naphthyl)thio]quinazolines, a unique class of antimetabolites with extraordinary antimalarial and antibacterial effects” (J Med Chem, 1978).
Converted amounts (≈) assume the structure as drawn. The source made the active and inactive calls. The rule behind the calls is not given here.

Key:
Plasmodium falciparum [1] = assay: Antimalarial activity against chloroquine-susceptible, pyrimethamine-resistant Plasmodium falciparum Malayan Camp infected in Aotus trivirgatus owl monkey model assessed as cure from parasite infection at 0.39 to 5 mg/kg, po qd for 7 days relative to control; format: functional; settings: dose mg/kg 0.39-5
Escherichia coli = assay: Antibacterial activity against Escherichia coli Vogel by gradient plate test; format: functional
Plasmodium berghei [2] = assay: Antimalarial activity against Plasmodium berghei infected in mouse assessed as disease cure from parasite infection at 640 mg/kg, sc administered 72 hrs after infection; format: functional, organism-based; parameters: dose 640 mg/kg
Staphylococcus aureus [3] = assay: Antibacterial activity against drug-resistant Staphylococcus aureus S18713 by gradient plate test; format: functional
Plasmodium berghei [4] = assay: Ratio of quinine hydrochloride SD90 to compound SD90 for trophozoite-induced Plasmodium berghei infected in mouse assessed as daily dose required to suppression of 90% parasite infection administered with diet for 6 days; format: functional
Plasmodium berghei [5] = assay: Antimalarial activity against cycloguanil-resistant Plasmodium berghei assessed as drug resistance; format: functional, organism-based
Plasmodium berghei [6] = assay: Antimalarial activity against chloroquine-resistant Plasmodium berghei assessed as drug resistance; format: functional, organism-based
Pseudomonas aeruginosa = assay: Antibacterial activity against Pseudomonas aeruginosa 28 by gradient plate test; format: functional
Plasmodium berghei [7] = assay: Antimalarial activity against Plasmodium berghei infected in mouse assessed as increase in mean survival days of host at 40 mg/kg, sc administered 72 hrs after infection relative to control; format: functional; settings: route subcutaneous
Plasmodium gallinaceum [8] = assay: Antimalarial activity against sporozoite-induced Plasmodium gallinaceum infected in white leghorn chicken assessed as increase in mean survival days of host at 320 mg/kg, sc administered 72 hrs after infection relative to control; format: functional; settings: route subcutaneous
Plasmodium gallinaceum [9] = assay: Antimalarial activity against sporozoite-induced Plasmodium gallinaceum infected in white leghorn chicken assessed as disease cure from parasite infection at 80 mg/kg, sc administered 72 hrs after infection; format: functional, organism-based; parameters: dose 80 mg/kg
Plasmodium gallinaceum [10] = assay: Antimalarial activity against trophozoite-induced Plasmodium gallinaceum infected in white leghorn chicken assessed as increase in mean survival days of host at 160 mg/kg, sc administered 72 hrs after infection relative to control; format: functional; settings: route subcutaneous
Plasmodium gallinaceum [11] = assay: Antimalarial activity against trophozoite-induced Plasmodium gallinaceum infected in white leghorn chicken assessed as increase in mean survival days of host at 80 mg/kg, sc administered 72 hrs after infection relative to control; format: functional; settings: route subcutaneous
Plasmodium berghei [12] = assay: Antimalarial activity against Plasmodium berghei infected in mouse assessed as increase in mean survival days of host at 5 mg/kg, sc administered 72 hrs after infection relative to control; format: functional; settings: route subcutaneous
Plasmodium falciparum [13] = assay: Antimalarial activity against chloroquine-susceptible, pyrimethamine-resistant Plasmodium falciparum Malayan Camp infected in Aotus trivirgatus owl monkey model assessed as cure from parasite infection at >2.5 mg/kg, po qd for 7 days relative to control; format: functional
Staphylococcus aureus [14] = assay: Antibacterial activity against Staphylococcus aureus UC-96 by gradient plate test; format: functional
Shigella sonnei = assay: Antibacterial activity against Shigella sonnei C-10 by gradient plate test; format: functional
Plasmodium gallinaceum [15] = assay: Antimalarial activity against sporozoite-induced Plasmodium gallinaceum infected in white leghorn chicken assessed as increase in mean survival days of host at 80 mg/kg, sc administered 72 hrs after infection relative to control; format: functional; settings: route subcutaneous
Plasmodium gallinaceum [16] = assay: Antimalarial activity against sporozoite-induced Plasmodium gallinaceum infected in white leghorn chicken assessed as disease cure from parasite infection at 320 mg/kg, sc administered 72 hrs after infection; format: functional, organism-based; parameters: dose 320 mg/kg
Plasmodium berghei [17] = assay: Antimalarial activity against Plasmodium berghei infected in mouse assessed as disease cure from parasite infection at 40 mg/kg, sc administered 72 hrs after infection; format: functional, organism-based; parameters: dose 40 mg/kg
Plasmodium berghei [18] = assay: Antimalarial activity against Plasmodium berghei infected in mouse assessed as increase in mean survival days of host at 1.25 mg/kg, sc administered 72 hrs after infection relative to control; format: functional; settings: route subcutaneous
Plasmodium berghei [19] = assay: Antimalarial activity against Plasmodium berghei infected in mouse assessed as disease cure from parasite infection at 80 mg/kg, sc administered 72 hrs after infection; format: functional, organism-based; parameters: dose 80 mg/kg
Plasmodium falciparum [20] = assay: Antimalarial activity against pyrimethamine-sensitive Plasmodium falciparum Vietnam Oak Knoll infected in Aotus trivirgatus owl monkey model assessed as cure from parasite infection at 0.6 mg/kg, po qd for 7 days relative to control; format: functional
Plasmodium gallinaceum [21] = assay: Antimalarial activity against trophozoite-induced Plasmodium gallinaceum infected in white leghorn chicken assessed as disease cure from parasite infection at 320 mg/kg, sc administered 72 hrs after infection; format: functional, organism-based; parameters: dose 320 mg/kg
Plasmodium berghei [22] = assay: Antimalarial activity against Plasmodium berghei infected in mouse assessed as increase in mean survival days of host at 20 mg/kg, sc administered 72 hrs after infection relative to control; format: functional; settings: route subcutaneous
Plasmodium berghei [23] = assay: Antimalarial activity against Plasmodium berghei infected in mouse assessed as increase in mean survival days of host at 2.5 mg/kg, sc administered 72 hrs after infection relative to control; format: functional; settings: route subcutaneous
Plasmodium falciparum [24] = assay: Antimalarial activity against pyrimethamine-sensitive Plasmodium falciparum Vietnam Oak Knoll infected in Aotus trivirgatus owl monkey model assessed as cure from parasite infection at 0.098 to 1.56 mg/kg, po qd for 7 days relative to control; format: functional; settings: dose mg/kg 0.098-1.56
Plasmodium berghei [25] = assay: Antimalarial activity against Plasmodium berghei infected in mouse assessed as increase in mean survival days of host at 10 mg/kg, sc administered 72 hrs after infection relative to control; format: functional; settings: route subcutaneous
Plasmodium berghei [26] = assay: Antimalarial activity against Plasmodium berghei infected in mouse assessed as disease cure from parasite infection at 160 mg/kg, sc administered 72 hrs after infection; format: functional, organism-based; parameters: dose 160 mg/kg
Enterococcus faecalis = assay: Antibacterial activity against Streptococcus faecalis MGH-2 by gradient plate test; format: functional
Plasmodium gallinaceum [27] = assay: Antimalarial activity against trophozoite-induced Plasmodium gallinaceum infected in white leghorn chicken assessed as disease cure from parasite infection at 160 mg/kg, sc administered 72 hrs after infection; format: functional, organism-based; parameters: dose 160 mg/kg
Plasmodium gallinaceum [28] = assay: Antimalarial activity against sporozoite-induced Plasmodium gallinaceum infected in white leghorn chicken assessed as disease cure from parasite infection at 160 mg/kg, sc administered 72 hrs after infection; format: functional, organism-based; parameters: dose 160 mg/kg
Plasmodium berghei [29] = assay: Antimalarial activity against trophozoite-induced Plasmodium berghei infected in mouse assessed as daily dose required to suppression of 90% parasite infection administered with diet for 6 days; format: functional
Plasmodium berghei [30] = assay: Antimalarial activity against Plasmodium berghei infected in mouse assessed as increase in mean survival days of host at 80 mg/kg, sc administered 72 hrs after infection relative to control; format: functional; settings: route subcutaneous
Plasmodium berghei [31] = assay: Antimalarial activity against Plasmodium berghei infected in mouse assessed as disease cure from parasite infection at 320 mg/kg, sc administered 72 hrs after infection; format: functional, organism-based; parameters: dose 320 mg/kg

SMILES: Nc1nc(N)c2cc(Sc3ccc(Cl)cc3)ccc2n1
- Activity (Plasmodium falciparum [1]): >50%
- MIC (Escherichia coli): 1 µg/mL (≈ 3.3 µM)
- Activity (Plasmodium berghei [2]): Active
- MIC (Staphylococcus aureus [3]): < 0.25 µg/mL
- Ratio (Plasmodium berghei [4]): 340
- Activity (Plasmodium berghei [5]): Active
- Activity (Plasmodium berghei [6]): inactive
- MIC (Pseudomonas aeruginosa): > 25 µg/mL
- MST (Plasmodium berghei [7]): 13.1 days
- MST (Plasmodium gallinaceum [8]): 1.9 days
- Activity (Plasmodium gallinaceum [9]): Active
- MST (Plasmodium gallinaceum [10]): 22.2 days
- MST (Plasmodium gallinaceum [11]): 16.7 days
- MST (Plasmodium berghei [12]): 6 days
- Activity (Plasmodium falciparum [13]): >50%
- MIC (Staphylococcus aureus [14]): < 0.25 µg/mL
- MIC (Shigella sonnei): 5 µg/mL (≈ 16.5 µM)
- MST (Plasmodium gallinaceum [15]): 17.9 days
- Activity (Plasmodium gallinaceum [16]): Active
- Activity (Plasmodium berghei [17]): Active
- MST (Plasmodium berghei [18]): 1.7 days
- Activity (Plasmodium berghei [19]): Active
- Activity (Plasmodium falciparum [20]): >50%
- Activity (Plasmodium gallinaceum [21]): Active
- MST (Plasmodium berghei [22]): 9.2 days
- MST (Plasmodium berghei [23]): 2.5 days
- Activity (Plasmodium falciparum [24]): >50%
- MST (Plasmodium berghei [25]): 9.2 days
- Activity (Plasmodium berghei [26]): Active
- MIC (Enterococcus faecalis): < 0.25 µg/mL
- Activity (Plasmodium gallinaceum [27]): Active
- Activity (Plasmodium gallinaceum [28]): Active
- SD90 (Plasmodium berghei [29]): 0.22 mg/kg/day
- MST (Plasmodium berghei [30]): 25.8 days
- Activity (Plasmodium berghei [31]): Active
